Experimental data reported in patent US4745191A, “1-((A-substituted phenyl-ω-substituted piperazinyl)alkenyl) cyclohexanol” (American Home Products Corporation, priority 1987, dated 1988).
Where two headings read alike, the source gives them in different places.

Key:
5-HT1A receptor = target: T1, 5-HT1A receptor (Rattus norvegicus, UniProt P19327); assay: inhibition of [3H] 8-hydroxy-2-(di-n-propylamino)tetraline binding at 5-HT1A receptor binding sites in rat hippocampal tissue; conditions: for inhibition at 1 µM: read-out: Receptor Binding 5HT1A % Inhibition at 1 μM
T1 construct: from tissue; host or cells: rat hippocampal tissue
T1 sequence (P19327 1-422): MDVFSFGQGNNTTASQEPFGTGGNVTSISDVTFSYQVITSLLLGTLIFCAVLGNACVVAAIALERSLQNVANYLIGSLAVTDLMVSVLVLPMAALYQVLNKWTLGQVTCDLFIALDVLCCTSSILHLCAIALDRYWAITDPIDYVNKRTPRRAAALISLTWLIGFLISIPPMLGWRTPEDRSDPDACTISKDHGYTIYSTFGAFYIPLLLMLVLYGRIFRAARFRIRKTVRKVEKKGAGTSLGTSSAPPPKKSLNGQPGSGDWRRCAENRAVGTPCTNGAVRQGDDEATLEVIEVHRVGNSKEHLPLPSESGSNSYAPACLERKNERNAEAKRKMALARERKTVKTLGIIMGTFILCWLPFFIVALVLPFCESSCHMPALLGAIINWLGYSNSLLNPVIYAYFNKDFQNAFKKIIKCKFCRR
Excerpt: 8-hydroxy-2-(di-n-propylamino)tetraline binding at 5-HT binding sites in rat hippocamphal tissue, following the procedure of Hall et al., J. Neurochem., 44 1685 (1985).

dopamine D2 receptor = target: T2, dopamine D2 receptor (Rattus norvegicus, UniProt P61169); assay: inhibition of 3H-haloperidol binding at D2 receptors in homogenized limbic brain tissue
T2 construct: D2 receptors found in homogenized limbic brain tissue; from tissue; host or cells: homogenized limbic brain tissue
Excerpt: The actual percentage reduction of ^3 H-haloperidol binding is reported infra and the larger the number, the greater the potential for dopamine D2 receptor binding and antipsychotic activity.

[1] = test system: NE (synaptosomal norepinephrine uptake); assay: inhibition of synaptosomal uptake of norepinephrine (3H-NE); assay type: biochemical; conditions: synaptosomal 3H-NE uptake; for IC50: read-out: Neuronal Uptake NE IC50
[2] = test system: 5HT (synaptosomal serotonin uptake); assay: inhibition of synaptosomal uptake of serotonin (14C-5-HT); assay type: biochemical; conditions: synaptosomal 14C-5-HT uptake; for IC50: read-out: Neuronal Uptake 5HT IC50
[3] = at 1 μM, rat hippocampal tissue

T2 sequence (P61169 whole entry): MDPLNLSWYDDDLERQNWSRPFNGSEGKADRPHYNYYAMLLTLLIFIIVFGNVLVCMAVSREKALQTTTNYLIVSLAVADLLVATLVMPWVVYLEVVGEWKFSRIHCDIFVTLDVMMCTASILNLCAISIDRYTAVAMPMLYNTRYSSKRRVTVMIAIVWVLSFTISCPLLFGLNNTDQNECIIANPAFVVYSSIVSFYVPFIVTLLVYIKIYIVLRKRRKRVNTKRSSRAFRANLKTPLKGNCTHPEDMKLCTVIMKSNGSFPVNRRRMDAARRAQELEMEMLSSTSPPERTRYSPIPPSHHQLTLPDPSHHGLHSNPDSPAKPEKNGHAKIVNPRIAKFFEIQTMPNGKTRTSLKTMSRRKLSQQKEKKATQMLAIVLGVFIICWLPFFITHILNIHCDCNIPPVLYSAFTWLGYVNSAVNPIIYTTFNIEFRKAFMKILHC

Structure (SMILES)	Ki (5-HT1A receptor; rat hippocampal tissue) [nM]	inhibition at 1 µM (dopamine D2 receptor) [%]	IC50 [1] [nM]	IC50 [2] [nM]	inhibition at 1 µM (5-HT1A receptor; [3]) [%]	also measured
O=C1CC2(CCCC2)CC(=O)N1CCCCN1CCN(c2ncccn2)CC1 [Buspirone, reference compound]						inhibition at 1 µM (5-HT1A receptor): 97%
COc1cccc(C(=CCN2CCN(Cc3ccccc3)CC2)C2(O)CCCCC2)c1 [Example 1, 1-[1-(3-methoxyphenyl)-3-[4-(phenylmethyl)-1-piperazinyl]-1-propenyl]cyclohexanol]	3	80	640	1690		
COc1ccc(C(=CCN2CCN(Cc3ccccc3)CC2)C2(O)CCCCC2)cc1 [Example 2, 1-[1-(4-methoxyphenyl)-3-[4-(phenylmethyl)-1-piperazinyl]-1-propenyl]cyclohexanol]	4	66				
COc1cccc(C(=CCN2CCN(Cc3cccc(Cl)c3)CC2)C2(O)CCCCC2)c1 [Example 4]	0.7					Ki (dopamine D2 receptor): 17 nM; Neuronal Uptake NE % Inhibition at 10 μM ([1]; at 10 μM): 100%; Neuronal Uptake 5HT % Inhibition at 10 μM ([2]; at 10 μM): 100%
COc1cccc(C(=CCN2CCN(Cc3ccc(Cl)cc3)CC2)C2(O)CCCCC2)c1 [Example 5, 1-[3-[4-[(4-chlorophenyl)methyl]-1-piperazinyl]-1-(3-methoxyphenyl)-1-propenyl]cyclohexanol]		76			99	
COc1cccc(C(=CCN2CCN(Cc3ccc(C(F)(F)F)cc3)CC2)C2(O)CCCCC2)c1 [Example 6, 1-[1-(3-methoxyphenyl)-3-[4-[[4-(trifluoromethyl)phenyl]methyl]-1-piperazinyl]-1-propenyl]cyclohexanol]		76			99	
COc1cccc(C(=CCN2CCN(c3ncccn3)CC2)C2(O)CCCCC2)c1 [Example 7]	49	61	4820	2090		
COc1cccc(C(=CCN2CCN(c3cncc(Cl)n3)CC2)C2(O)CCCCC2)c1 [Example 8, 1-[3-[4-(6-chloro-2-pyrazinyl)-1-piperazinyl]-1-(3-methoxyphenyl)-1-(3-methoxyphenyl)-1-propenyl]cyclohexanol]	138					
COc1ccc(C(=CCCN2CCN(Cc3ccccc3)CC2)C2(O)CCCCC2)cc1 [Example 10, 1-[1-(4-methoxyphenyl)-4-[4-(phenylmethyl)-1-piperazinyl]-1-butenyl]cyclohexanol]		53	190	920	74	
